Test results taken from patent US6150361A, “Triazineone compounds for treating diseases due to sarcosystis, neospora and toxoplasma” (Bayer Corporation, priority 1998, dated 2000).
Where “and” joins values, the source holds several entries; their conditions need not be identical. Identical values can stand only once.

What was measured:
[1] = system: EPM-Infected Horses; assay: Treatment of naturally occurring clinical EPM in horses with Ponazuril paste (clinical score); format: in vivo
Description: The compound was formulated into a paste using Ponazuril as a 15% active ingredient (a.i.) as described in EXAMPLE 1. It was administered to horses already diagnosed with EPM once a day for 28 days at a dose rate between 2.5 mg/Kg and 10 mg/Kg.
Naturally occurring clinical cases of EPM were well characterized by signalment and laboratory diagnosis. The diagnosis used for incorporation of EPM-positive horses into this trial was as follows: Confirmed asymmetrical neurological deficit as determined by a standardized neurological examination, to include radiography, indicative of EPM; Positive Western Blot for Sarcocystis neurona IgG; Red Blood Cell count below 500 cells/mL; CSF indices--Total Protein<90, IgG index>0.3. AQ quotient<2.2.
Additional requirements were that the horses were not suffering from diseases other than EPM. Therefore, they had to meet the following criteria: Negative CSF (<1:4) for EHV-1; Normal serum values for Vitamin E (.2.0 μg/mL); Lack of seizure disorders; Lack of behavior disorders.
Diagnosed horses were randomly assigned to groups. Group 1 horses received the paste formulation daily at a dose rate of 5 mg/Kg whereas Group 2 horses received the paste formulation daily at a dose rate of 10 mg/Kg. The treatment dose was based on body weight. The horses were evaluated for a period of 90 days (approximately 60 days after discontinuation of treatment) in order to determine that treatment was indeed effective. The response to treatment was scored using the following system:
1) 0=complete success-clinically normal with a negative CSF; 2) 1=Deficit just detected at a normal gait; 3) 2=Deficit easily detected and exaggerated by backing, turning, swaying, jaw loin pressure and neck extension; 4) 3=Deficit very prominent on walking, Facial turning, loin pressure or neck extension; 5) 4=Stumbling, tripping and falling down spontaneously; 6) 5=Recumbent, unable to rise. An improvement of one (1) unit in the score was considered a significant improvement.

[2] = Drug levels in cerebral spinal fluid after repeated doses of Toltrazuril in horses; format: in vivo; set-up: Drug level in Cerebral Spinal Fluid, Day 10 / AVG drug level in Cerebral Spinal Fluid, Day 10: unit not given here; settings: for AVG drug level in Cerebral Spinal Fluid, Day 10: group average; for Drug level in Cerebral Spinal Fluid, Day 10: individual horse
Description: This experiment was conducted in order to determine whether triazineones such as Toltrazuril can pass the blood-brain barrier. Normal horses were divided into three groups of three horses per group. Group 1 horses received Toltrazuril administered orally as a 5% suspension at a dose level of 2.5 mg/Kg. Group 2 horses received Toltrazuril administered orally as a 5% suspension at a dose level of 5.0 mg/Kg. Group 3 horses received Toltrazuril administered orally as a 5% suspension at a dose level of 7.5 mg/Kg. The dosing was repeated daily for 10 days. Blood samples were drawn at 48, 96 and 240 hours and the concentration of Toltrazuril, Toltrazuril sulfoxide and Ponazuril in the serum was measured. Ten days after the start of the treatment (Day 10), a sample of cerebral spinal fluid was removed from each horse and the concentrations of Toltrazuril, Toltrazuril Sulfoxide and Ponazuril were again measured in these samples. The concentrations of Toltrazuril, Toltrazuril Sulfoxide and Ponazuril in the serum and cerebral spinal fluid are reported in TABLES 5a and 5b.

[3] = individual horse, 5 mg/Kg paste daily for 28 days, score 0=complete success to 5=recumbent, listed as Toltrazuril Sulfone
[4] = individual horse, 10 mg/Kg paste daily for 28 days, score 0=complete success to 5=recumbent, listed as Toltrazuril Sulfone
[5] = sum of scores of group, 5 mg/Kg daily for 28 days
[6] = sum of scores of group, 10 mg/Kg daily for 28 days
[7] = Toltrazuril 2.5 mg/Kg oral daily for 10 days
[8] = Toltrazuril 5.0 mg/Kg oral daily for 10 days
[9] = Toltrazuril 7.5 mg/Kg oral daily for 10 days

Cc1cc(-n2c(=O)[nH]c(=O)n(C)c2=O)ccc1Oc1ccc(S(=O)(=O)C(F)(F)F)cc1 [Ponazuril]
improvement in total scores, Group 1 versus Group 2 ([1]; 5 mg/Kg versus 10 mg/Kg): approximately equivalent
horses showing a significant improvement in clinical score by day 90 ([1]; 10 mg/Kg, treated for 28 days, improvement of 1 unit significant): 100%
effectiveness for the active treatment of EPM in horses ([1]; either 5 mg/Kg or 10 mg/Kg): effective
clinical score, Day 28, 5 mg/Kg Dose [1, 3]: 1 and 2 and 0 and 3
clinical score, Day 90, 5 mg/Kg Dose [1, 3]: 2 and 1 and 0 and 3
clinical score, Day 28, 10 mg/Kg Dose [1, 4]: 2 and 1 and 0
clinical score, Day 90, 10 mg/Kg Dose [1, 4]: 1 and 0
clinical score, Day 0, 5 mg/Kg Dose ([1]; individual horse, before treatment, 5 mg/Kg paste daily for 28 days, score 0=complete success to 5=recumbent, listed as Toltrazuril Sulfone): 2 and 3
clinical score, Day 0, 10 mg/Kg Dose ([1]; individual horse, before treatment, 10 mg/Kg paste daily for 28 days, score 0=complete success to 5=recumbent, listed as Toltrazuril Sulfone): 4 and 3 and 2
TOTAL clinical score, Day 28, 5 mg/Kg Dose [1, 5]: 13
TOTAL clinical score, Day 90, 5 mg/Kg Dose [1, 5]: 6
TOTAL clinical score, Day 28, 10 mg/Kg Dose [1, 6]: 15
TOTAL clinical score, Day 90, 10 mg/Kg Dose [1, 6]: 4
TOTAL clinical score, Day 0, 5 mg/Kg Dose ([1]; sum of scores of group, before treatment, 5 mg/Kg): 17
TOTAL clinical score, Day 0, 10 mg/Kg Dose ([1]; sum of scores of group, before treatment, 10 mg/Kg): 19
AVG drug level in Cerebral Spinal Fluid, Day 10 [2, 7]: 0.09
Drug level in Cerebral Spinal Fluid, Day 10 [2, 7]: 0.09 and 0.07 and 0.11
AVG drug level in Cerebral Spinal Fluid, Day 10 [2, 8]: 0.16
Drug level in Cerebral Spinal Fluid, Day 10 [2, 8]: 0.12 and 0.14 and 0.21
AVG drug level in Cerebral Spinal Fluid, Day 10 [2, 9]: 0.22
Drug level in Cerebral Spinal Fluid, Day 10 [2, 9]: 0.23 and 0.17 and 0.27
concentration in the cerebral spinal fluid compared with Toltrazuril ([2]; after treatment of horses with Toltrazuril): essentially equivalent to the concentration of Toltrazuril itself
